Calls of active or inactive are those of the source. The rule behind the calls is not given here.
Assays:
[1] = Toxicity in female Sprague-Dawley rat assessed as effect on body weight at 250 mg/kg, po administered as single dose measured on day 7 (Rvb =169.81 +/- 6.57 g); format: organism-based; details: in vivo, 168 h, time 7 day
[2] = Toxicity in female Sprague-Dawley rat assessed as average water intake measured per day at 1000 mg/kg, po administered as single dose measured on day 1 (Rvb =25 ml/day); format: organism-based; details: in vivo, 24 h, time 1 day
Mus musculus [3] = assay: Anti-obesity activity in C57BL6/J mouse model of high fat diet-induced obesity assessed as reduction in epididymal fat pad weight at 50 mg/kg; format: functional, organism-based
3T3-L1 [4] = assay: Anti-adipogenic activity against mouse 3T3-L1 cells assessed as upregulation of TEAD4 mRNA expression at 25 uM measured after 7 days by qRT-PCR analysis; format: functional, cell-based; details: time 7.0 day
Mus musculus [5] = assay: Anti-obesity activity in db/db mouse assessed as inhibition of slc2a4 expression at 50 mg/kg, po qd administered for 30 days by qRT-PCR analysis; format: functional, organism-based; details: time 30.0 day
[6] = Toxicity in female Sprague-Dawley rat assessed as average food intake at 250 mg/kg, po administered as single dose measured on day 14 (Rvb =15.95 g/day); format: organism-based; details: in vivo, 336 h, time 14 day
[7] = Mutagenicity in Salmonella typhimurium TA100 assessed as number of revertants measured per plate at 10 to 1000 incubated for 48 hrs in absence of rat liver S9 fraction by plate incorporation assay; format: toxicity; details: salmonella enterica subsp. enterica serovar typhimurium, s9, 48 h, dose 10-1000 µg
[8] = Toxicity in female Sprague-Dawley rat assessed as effect on body weight at 500 mg/kg, po administered as single dose measured on day 1 (Rvb =152.21 +/- 6.58 g); format: organism-based; details: in vivo, 24 h, time 1 day
3T3-L1 [9] = assay: Anti-adipogenic activity against mouse 3T3-L1 cells assessed as downregulation of CEBPA mRNA expression at 25 uM measured after 7 days by qRT-PCR analysis; format: functional, cell-based; details: time 7.0 day
[10] = Toxicity in male Sprague-Dawley rat assessed as effect on body weight at 250 mg/kg, po administered as single dose measured on day 14 (Rvb =231.13 +/- 18.38 g); format: organism-based; details: in vivo, 336 h, time 14 day
[11] = Toxicity in male Sprague-Dawley rat assessed as average food intake at 250 mg/kg, po administered as single dose measured on day 7 (Rvb =20.24 g/day); format: organism-based; details: in vivo, 168 h, time 7 day
[12] = Toxicity in female Sprague-Dawley rat assessed as average food intake at 500 mg/kg, po administered as single dose measured on day 14 (Rvb =15.95 g/day); format: organism-based; details: in vivo, 336 h, time 14 day
3T3-L1 [13] = assay: Anti-adipogenic activity against mouse 3T3-L1 cells assessed as downregulation of LEP mRNA expression at 25 uM measured after 7 days by qRT-PCR analysis; format: functional, cell-based; details: time 7.0 day
[14] = Toxicity in female Sprague-Dawley rat assessed as average water intake measured per day at 500 mg/kg, po administered as single dose measured on day 7 (Rvb =21 ml/day); format: organism-based; details: in vivo, 168 h, time 7 day
[15] = Toxicity in male Sprague-Dawley rat assessed as average water intake measured per day at 500 mg/kg, po administered as single dose measured on day 7 (Rvb =30 ml/day); format: organism-based; details: in vivo, 168 h, time 7 day
[16] = Toxicity in female Sprague-Dawley rat assessed as average water intake measured per day at 250 mg/kg, po administered as single dose measured on day 1 (Rvb =25 ml/day); format: organism-based; details: in vivo, 24 h, time 1 day
[17] = Toxicity in male Sprague-Dawley rat assessed as average food intake at 1000 mg/kg, po administered as single dose measured on day 7 (Rvb =20.24 g/day); format: organism-based; details: in vivo, 168 h, time 7 day
Mus musculus [18] = assay: Anti-obesity activity in db/db mouse assessed as reduction in hepatic steatosis at 50 mg/kg, po qd administered for 30 days by hematoxylin and eosin staining based assay; format: functional, organism-based; details: time 30.0 day
[19] = Toxicity in female Sprague-Dawley rat assessed as average food intake at 500 mg/kg, po administered as single dose measured on day 7 (Rvb =15.65 g/day); format: organism-based; details: in vivo, 168 h, time 7 day
[20] = Mutagenicity in Salmonella typhimurium TA102 assessed as number of revertants measured per plate at 10 to 1000 incubated for 48 hrs in absence of rat liver S9 fraction by plate incorporation assay; format: toxicity; details: salmonella enterica subsp. enterica serovar typhimurium, s9, 48 h, dose 10-1000 µg
[21] = Toxicity in female Sprague-Dawley rat assessed as effect on body weight at 1000 mg/kg, po administered as single dose measured on day 1 (Rvb =152.21 +/- 6.58 g); format: organism-based; details: in vivo, 24 h, time 1 day
[22] = Mutagenicity in Salmonella typhimurium TA102 assessed as number of revertants measured per plate at 10 to 1000 incubated for 48 hrs in presence of rat liver S9 fraction by plate incorporation assay; format: toxicity; details: salmonella enterica subsp. enterica serovar typhimurium, s9, 48 h, dose 10-1000 µg
Mus musculus [23] = assay: Anti-obesity activity in C57BL6/J mouse model of high fat diet-induced obesity assessed as reduction in hepatic steatosis at 50 mg/kg by hematoxylin and eosin staining based assay; format: functional, organism-based
[24] = Toxicity in male Sprague-Dawley rat assessed as average water intake measured per day at 250 mg/kg, po administered as single dose measured on day 7 (Rvb =30 ml/day); format: organism-based; details: in vivo, 168 h, time 7 day
[25] = Toxicity in male Sprague-Dawley rat assessed as average food intake at 250 mg/kg, po administered as single dose measured on day 1 (Rvb =20.38 g/day); format: organism-based; details: in vivo, 24 h, time 1 day
3T3-L1 [26] = assay: Inhibition of H3K23 butyrylation in mouse 3T3-L1 cells by Immunoblotting analysis; format: functional, cell-based
[27] = Toxicity in male Sprague-Dawley rat assessed as average food intake at 250 mg/kg, po administered as single dose measured on day 14 (Rvb =21.24 g/day); format: organism-based; details: in vivo, 336 h, time 14 day
[28] = Toxicity in female Sprague-Dawley rat assessed as effect on body weight at 1000 mg/kg, po administered as single dose measured on day 14 (Rvb =171.5 +/- 6.65 g); format: organism-based; details: in vivo, 336 h, time 14 day
[29] = target: Histone acetyltransferase p300 (Homo sapiens) (UniProt Q09472); assay: Inhibition of recombinant full length His-tagged EP300 catalyzed butyrylation (unknown origin) expressed in baculovirus infected Sf21insect cells using Histone H3 as substrate at 25 uM preincubated with compound for 10 mins followed by butyryl-CoA addition and measured after 10 mins by Western blot analysis; details: Sf21, time 20.0 min
3T3-L1 [30] = assay: Anti-adipogenic activity against mouse 3T3-L1 cells assessed as downregulation of FASN mRNA expression at 25 uM measured after 7 days by qRT-PCR analysis; format: functional, cell-based; details: time 7.0 day
Mus musculus [31] = assay: Anti-obesity activity in db/db mouse assessed as inhibition of Pprag-gene expression at 50 mg/kg, po qd administered for 30 days by qRT-PCR analysis; format: functional, organism-based; details: time 30.0 day
[32] = Toxicity in female Sprague-Dawley rat assessed as average food intake at 1000 mg/kg, po administered as single dose measured on day 7 (Rvb =15.65 g/day); format: organism-based; details: in vivo, 168 h, time 7 day
[33] = Toxicity in male Sprague-Dawley rat assessed as average water intake measured per day at 1000 mg/kg, po administered as single dose measured on day 7 (Rvb =30 ml/day); format: organism-based; details: in vivo, 168 h, time 7 day
[34] = Toxicity in male Sprague-Dawley rat assessed as effect on body weight at 1000 mg/kg, po administered as single dose measured on day 14 (Rvb =231.13 +/- 18.38 g); format: organism-based; details: in vivo, 336 h, time 14 day

Sequence of Histone acetyltransferase p300 (Homo sapiens) (Q09472 whole entry): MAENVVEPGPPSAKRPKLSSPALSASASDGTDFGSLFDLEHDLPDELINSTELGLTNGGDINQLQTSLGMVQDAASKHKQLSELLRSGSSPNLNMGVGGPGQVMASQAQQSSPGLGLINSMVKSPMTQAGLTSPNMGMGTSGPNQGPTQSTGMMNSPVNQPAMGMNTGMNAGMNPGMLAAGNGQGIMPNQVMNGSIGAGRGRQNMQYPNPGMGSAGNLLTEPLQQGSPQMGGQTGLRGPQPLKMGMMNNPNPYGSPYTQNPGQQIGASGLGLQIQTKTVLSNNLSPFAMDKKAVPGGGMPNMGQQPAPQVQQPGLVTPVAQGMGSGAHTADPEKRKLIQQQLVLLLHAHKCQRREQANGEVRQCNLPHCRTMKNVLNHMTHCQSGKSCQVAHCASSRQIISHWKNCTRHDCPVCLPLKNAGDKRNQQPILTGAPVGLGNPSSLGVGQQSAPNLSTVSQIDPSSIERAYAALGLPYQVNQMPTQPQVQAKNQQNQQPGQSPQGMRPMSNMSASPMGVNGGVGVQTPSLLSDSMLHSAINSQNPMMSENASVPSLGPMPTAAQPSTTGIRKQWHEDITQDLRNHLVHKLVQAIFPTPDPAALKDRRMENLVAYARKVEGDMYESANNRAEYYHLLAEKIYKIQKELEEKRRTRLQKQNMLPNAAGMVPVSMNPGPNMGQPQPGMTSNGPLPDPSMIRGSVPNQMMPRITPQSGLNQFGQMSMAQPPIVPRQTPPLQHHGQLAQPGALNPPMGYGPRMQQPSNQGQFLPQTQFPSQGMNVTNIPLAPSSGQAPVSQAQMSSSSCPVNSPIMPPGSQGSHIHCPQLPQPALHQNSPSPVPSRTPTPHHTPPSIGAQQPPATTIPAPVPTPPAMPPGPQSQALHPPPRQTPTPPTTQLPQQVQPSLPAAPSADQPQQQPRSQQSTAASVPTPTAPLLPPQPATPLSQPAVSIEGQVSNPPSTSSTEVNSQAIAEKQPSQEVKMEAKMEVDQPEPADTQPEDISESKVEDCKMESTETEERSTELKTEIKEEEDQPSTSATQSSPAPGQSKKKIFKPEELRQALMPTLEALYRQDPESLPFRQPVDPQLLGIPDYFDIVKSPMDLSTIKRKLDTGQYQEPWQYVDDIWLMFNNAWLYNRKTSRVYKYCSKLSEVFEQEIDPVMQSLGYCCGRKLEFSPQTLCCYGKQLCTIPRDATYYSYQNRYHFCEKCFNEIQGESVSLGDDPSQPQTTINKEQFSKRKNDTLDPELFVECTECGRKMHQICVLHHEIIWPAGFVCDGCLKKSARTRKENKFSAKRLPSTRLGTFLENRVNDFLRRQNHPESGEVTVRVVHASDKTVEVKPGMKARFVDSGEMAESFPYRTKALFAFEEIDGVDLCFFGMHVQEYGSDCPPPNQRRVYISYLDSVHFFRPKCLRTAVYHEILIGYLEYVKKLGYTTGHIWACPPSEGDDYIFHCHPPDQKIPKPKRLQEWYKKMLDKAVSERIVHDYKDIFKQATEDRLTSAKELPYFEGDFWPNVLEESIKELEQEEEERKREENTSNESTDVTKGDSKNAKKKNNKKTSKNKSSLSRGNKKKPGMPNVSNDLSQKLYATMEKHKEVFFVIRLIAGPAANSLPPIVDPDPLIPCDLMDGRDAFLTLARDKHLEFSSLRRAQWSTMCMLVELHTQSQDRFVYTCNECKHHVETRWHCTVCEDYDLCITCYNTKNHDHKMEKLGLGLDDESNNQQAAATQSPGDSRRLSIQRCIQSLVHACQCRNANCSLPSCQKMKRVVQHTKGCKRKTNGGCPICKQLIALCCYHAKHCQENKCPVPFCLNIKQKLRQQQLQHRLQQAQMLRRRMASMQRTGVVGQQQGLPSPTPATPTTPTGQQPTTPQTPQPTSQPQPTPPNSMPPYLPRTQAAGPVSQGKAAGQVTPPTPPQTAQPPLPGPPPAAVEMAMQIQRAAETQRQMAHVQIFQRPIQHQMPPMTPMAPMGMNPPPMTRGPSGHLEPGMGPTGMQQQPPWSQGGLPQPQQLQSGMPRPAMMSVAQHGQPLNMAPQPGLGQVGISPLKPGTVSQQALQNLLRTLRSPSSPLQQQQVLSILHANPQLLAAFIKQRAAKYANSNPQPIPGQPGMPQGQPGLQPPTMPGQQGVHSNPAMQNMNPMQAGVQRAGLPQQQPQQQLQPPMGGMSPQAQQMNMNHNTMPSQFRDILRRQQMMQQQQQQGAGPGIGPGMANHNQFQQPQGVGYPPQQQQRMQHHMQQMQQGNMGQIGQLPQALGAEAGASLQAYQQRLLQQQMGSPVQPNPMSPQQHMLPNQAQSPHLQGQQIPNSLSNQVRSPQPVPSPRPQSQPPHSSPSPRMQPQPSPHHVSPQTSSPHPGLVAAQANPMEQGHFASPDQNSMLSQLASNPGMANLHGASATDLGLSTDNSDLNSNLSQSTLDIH

With `COc1ccc(C(=O)C2=C3OC(C)(C)[C@@H](CC=C(C)C)C[C@@]34C[C@@H](CC=C(C)C)C(C)(C)[C@](CC=C(C)C)(C2=O)C4=O)cc1OC` the Activity [1] was 174.54 g, the Activity [2] was 26 mL and the Activity (Mus musculus [3]) was “Active”. For the same compound, the Activity (3T3-L1 [4]) was “Active”, the Activity (Mus musculus [5]) was “Active” and the Activity [6] was 16.65 g/day. The Activity [7] was “Non-Toxic”, the Activity [8] was 153.32 g and the Activity (3T3-L1 [9]) was “Active”. It also gave an Activity [10] of 244.21 g, an Activity [11] of 20.79 g/day and an Activity [12] of 17.09 g/day. For the same compound, the Activity (3T3-L1 [13]) was “Active”, the Activity [14] was 23 mL and the Activity [15] was 33 mL. The Activity [16] was 26 mL, the Activity [17] was 20.74 g/day and the Activity (Mus musculus [18]) was “Active”. For the same compound, the Activity [19] was 18.13 g/day, the Activity [20] was “Non-Toxic” and the Activity [21] was 153.81 g. The Activity [22] was “Non-Toxic”, the Activity (Mus musculus [23]) was “Active” and the Activity [24] was 27 mL. The Activity [25] was 20.03 g/day, the inhibition (3T3-L1 [26]) was “Active” and the Activity [27] was 22.62 g/day. For the same compound, the Activity [28] was 179.52 g, the inhibition [29] was “Active” and the Activity (3T3-L1 [30]) was “Active”. For the same compound, the Activity (Mus musculus [31]) was “Active”, the Activity [32] was 17.82 g/day and the Activity [33] was 31 mL. For the same compound, the Activity [34] was 226.19 g.

Source: ChEMBL document CHEMBL5113530, “Butyrylation Meets Adipogenesis-Probed by a p300-Catalyzed Acylation-Specific Small Molecule Inhibitor: Implication in Anti-obesity Therapy” (J Med Chem, 2022)
